According to US6803186B2, “Compositions and methods for increasing amino acid absorption in mammals” (The IAMS Company, priority 2001, dated 2004):

Columns and labels:
canine PepT1 (cPepT1) [1] = biological target: T1, canine PepT1 (cPepT1) (Canis lupus familiaris, UniProt Q8WMX5); assay: Inhibition of H+-dependent 100 μM GlySar uptake by MDCK cells cultured in LHM; format: cell-based; conditions: 100 μM GlySar
T1 construct: endogenous in cells; host or cells: MDCK (Madin-Darby Canine Kidney) cells, whole-cell [3H]-GlySar uptake
T1 sequence (Q8WMX5 1-708): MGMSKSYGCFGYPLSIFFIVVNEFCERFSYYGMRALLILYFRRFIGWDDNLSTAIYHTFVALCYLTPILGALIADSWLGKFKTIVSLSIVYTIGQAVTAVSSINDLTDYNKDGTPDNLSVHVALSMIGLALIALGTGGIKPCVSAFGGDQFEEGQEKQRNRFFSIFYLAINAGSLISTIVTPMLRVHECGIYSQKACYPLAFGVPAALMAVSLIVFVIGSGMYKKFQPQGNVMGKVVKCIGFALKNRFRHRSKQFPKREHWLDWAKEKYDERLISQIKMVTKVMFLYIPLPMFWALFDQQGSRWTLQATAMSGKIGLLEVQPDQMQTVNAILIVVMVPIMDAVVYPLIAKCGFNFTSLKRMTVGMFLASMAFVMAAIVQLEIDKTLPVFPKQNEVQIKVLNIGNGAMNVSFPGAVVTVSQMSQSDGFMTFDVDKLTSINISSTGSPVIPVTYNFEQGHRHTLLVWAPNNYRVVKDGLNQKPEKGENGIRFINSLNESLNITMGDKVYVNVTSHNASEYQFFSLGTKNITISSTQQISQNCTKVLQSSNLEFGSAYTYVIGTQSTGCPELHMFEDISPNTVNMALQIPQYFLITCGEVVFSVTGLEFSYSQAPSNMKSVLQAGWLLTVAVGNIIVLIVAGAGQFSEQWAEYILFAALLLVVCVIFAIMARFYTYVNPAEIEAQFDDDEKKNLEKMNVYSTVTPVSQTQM
Procedure: Characteristic hallmarks of low affinity H^+/peptide cotransport activity, classically defined using membrane vesicles of several species, and more recently by functional expression studies using human, rat, and rabbit PepT1 cDNA, is the recognition of some, but not all, β-lactam antibiotics. […] To determine whether MDCK cPepT1 activity shared these functional features, the uptake of 100 μM GlySar in the absence and presence of pH 7.5 and pH 6.0 buffer, and, in pH 6.0 buffers, the presence of 1 mM additional GlySar (self-inhibitor control), 3 mM Penicillin-G, 30 μM cefadroxil, or 3 mM cefadroxil was compared (FIG. 13).
Other hallmarks of PepT1 function are the decreased ability of Gly-containing peptides to inhibit GlySar, in proportion to their length, and sensitivity to inhibition by carnosine (β-Ala-His).
Accordingly, the following general regimen was used to perform a series of experiments that evaluated the relative abilities of candidate di-(primarily) and tri-peptides to inhibit GlySar uptake by endogenously expressed cPepT1 in MDCK cells:
1. Sixty thousand cells/well were plated into collagen-coated 24-well trays and cultured at 37° C. in an atmosphere of 95% air/5% CO2 in DMEM/10% FCS that contained antibiotics for 1 day.
2. The media was removed and cells were cultured in LHM/10% FCS/antibiotics for 1 day.
3. The media was removed and cells cultured in LHM/10% FCS (no antibiotics) for 20 h.
4. The media was removed and cells cultured for 30 min in air at 37° C. in depletion medium (25 mM Hepes/Tris (pH 7.5), 140 mM NaCl, 5.4 mM KCl, 1.8 mM CaCl2, 0.8 mM MgSO4, and 5 mM glucose, to normalize intracellular nutrient pools.
5. Transport was initiated by replacing depletion medium with uptake medium (depletion medium adjusted to pH 6.0 or kept at pH 7.4) that contained 100 μM GlySar (at a specific activity of 5 μCi/mL, with [^3H]-GlySar supplying 2.88% of total GlySar substrate) and (or) 1 mM of inhibiting peptide.
In total, 23 inhibitory peptides and 2 drug compounds were screened using this protocol.

canine PepT1 (cPepT1) [2] = biological target: T1, canine PepT1 (cPepT1); assay: Substrate regulation of H+-dependent GlySar uptake capacity of MDCK cells cultured in DMEM (Example 3, Trials 1 and 2); format: cell-based; conditions: 10 mM in DMEM
Procedure: All cells were plated (60,000/2 cm^2 well) and cultured (95% air/5% CO2, 37° C.) for 24 h in Dulbecco's Modified Eagle Media/10% fetal calf serum (FCS)/1%Antibiotic/Antimicrobial solution (ABAM) (DMEM media). Following these initial common culture conditions, cells then were cultured in DMEM, or DMEM that contained 10 mM of Camosine, GlyPhe, Phe, or Gly. Media were changed every 24 h. Media treatments (n=8) were as follows:
The measurement of [^3H]Glysarcosine uptake was performed by using a 24-well cluster tray method (Kilberg M S. Measurement of amino acid transport by hepatocytes in suspension and monolayer culture. Methods Enzym 1989; 173:564-575. Matthews J C, Aslanian A, McDonald K K, Yang W, Malandro M S, Novak D A, Kilberg M S. An expression system for mammalian amino acid transport using a stably maintained episomal vector. Anal Biochem 1997; 254:208-214), and used in Examples 1 and 2. Cells were cultured for 30 min in air at 37° C. in depletion medium (25 mM Hepes/Tris (pH 7.5), 140 mM NaCl, 5.4 mM KCl, 1.8 mM CaCl2, 0.8 mM MgSO4, and 5 mM glucose), to normalize intracellular nutrient pools before transport. The transport assays are initiated by replacing depletion medium with uptake medium (Depletion medium adjusted to pH 6.0) that contained 100 μM GlySar (5 μCi/mL, with [^3H]-GlySar supplying 2.88% of total GlySar). After a 30 minute incubation period, transport was terminated with four rinses of 4° C. depletion medium (pH 7.5). Two hundred and twenty μL of 10% trichloroacetic acid was added to each well, and the radioactivity of the supernatant quantified by liquid scintillation counting. The cells of each well are solubilized in 0.2 N NaOH/0.2% SDS and the protein quantified by using the modified Lowry assay, using bovine serum as a standard. Id. Peptide uptake will be reported as pmol* mg^−1 protein* 30 min^−1. Uptake measurements were taken after 24, 48, and 72 hours of culture in treatment media.
The MDCK cell line was maintained as described previously in the Methods section of Trial 1. […]

canine PepT1 (cPepT1) [3] = assay: Influence of dexamethasone, insulin and IGF-I on H+-dependent GlySar uptake by MDCK cells (Trials 3A, 3B); format: cell-based; conditions: for effect on H+-dependent GlySar uptake capacity: 5 or 500 nM in DMEM, 4 h of culture
Procedure: MDCK cells were maintained as described in Trial 1, except that cells were cultured for only 1 d before transport trials were performed. Following initial and common culture conditions, cells were cultured in a “nutrient depleted” buffer (Hepes/Tris (pH 7.5),140 mM NaCl, 5.4 mM KCl, 1.8 mM CaCl2, 0.8 mM MgSO4) that contained 5 mM glucose as an energy source, but that lacked amino acid or vitamin sources. In contrast, cells cultured in DMEM, or DMEM that contained 5 nM Dex, 500 nM Dex, 5 nM insulin, or 500 nM insulin, were adequately nourished. Media treatments (n=4) were as follows:
The measurement of [^3H]Glysarcosine uptake was performed by using the 24-well cluster tray method as previously described in the Methods section of Trial 1. Peptide uptake is reported as pmol* mg^−1 protein*30 min^−1. Uptake measurements were taken after 30 min and 4 h of culture in treatment media.
Trial 3B was conducted in the same manner as described for Trail 3A, except that cells were cultured in DMEM or DMEM that contained 1 nM IGF-1, 5 nM IGF-1, 25 nM IGF-1, or 100 nM IGF-1. Uptake measurements were taken after 30 min and 4 h of culture time.

PepT2 = biological target: T2, PepT2 (Homo sapiens, UniProt Q16348); conditions: read-out: Ki of cefadroxil inhibition of PepT2 transport of GlySar; cited from earlier work
T2 sequence (Q16348 1-729): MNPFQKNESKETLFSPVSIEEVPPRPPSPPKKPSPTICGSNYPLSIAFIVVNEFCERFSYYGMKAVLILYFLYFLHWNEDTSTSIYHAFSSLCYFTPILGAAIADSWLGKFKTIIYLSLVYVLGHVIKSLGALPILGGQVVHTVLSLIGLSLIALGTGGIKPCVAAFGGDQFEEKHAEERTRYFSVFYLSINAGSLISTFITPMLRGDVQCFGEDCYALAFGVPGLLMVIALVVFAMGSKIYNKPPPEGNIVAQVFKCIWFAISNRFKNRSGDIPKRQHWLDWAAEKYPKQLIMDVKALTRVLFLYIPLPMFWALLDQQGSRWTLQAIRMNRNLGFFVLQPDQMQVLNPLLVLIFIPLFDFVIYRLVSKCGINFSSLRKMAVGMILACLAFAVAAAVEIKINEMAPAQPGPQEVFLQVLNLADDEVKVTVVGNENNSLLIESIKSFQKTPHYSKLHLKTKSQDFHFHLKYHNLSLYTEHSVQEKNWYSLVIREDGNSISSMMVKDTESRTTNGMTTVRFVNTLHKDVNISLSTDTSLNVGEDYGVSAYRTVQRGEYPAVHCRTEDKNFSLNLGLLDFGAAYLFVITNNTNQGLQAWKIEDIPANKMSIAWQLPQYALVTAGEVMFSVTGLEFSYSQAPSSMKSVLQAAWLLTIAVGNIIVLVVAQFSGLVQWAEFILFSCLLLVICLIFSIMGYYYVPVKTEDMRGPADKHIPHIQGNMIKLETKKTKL

PepT1 = biological target: T3, PepT1 (Homo sapiens, UniProt P46059); conditions: read-out: Ki of cefadroxil inhibition of GlySar uptake by PepT1; cited from earlier work
T3 sequence (P46059 1-708): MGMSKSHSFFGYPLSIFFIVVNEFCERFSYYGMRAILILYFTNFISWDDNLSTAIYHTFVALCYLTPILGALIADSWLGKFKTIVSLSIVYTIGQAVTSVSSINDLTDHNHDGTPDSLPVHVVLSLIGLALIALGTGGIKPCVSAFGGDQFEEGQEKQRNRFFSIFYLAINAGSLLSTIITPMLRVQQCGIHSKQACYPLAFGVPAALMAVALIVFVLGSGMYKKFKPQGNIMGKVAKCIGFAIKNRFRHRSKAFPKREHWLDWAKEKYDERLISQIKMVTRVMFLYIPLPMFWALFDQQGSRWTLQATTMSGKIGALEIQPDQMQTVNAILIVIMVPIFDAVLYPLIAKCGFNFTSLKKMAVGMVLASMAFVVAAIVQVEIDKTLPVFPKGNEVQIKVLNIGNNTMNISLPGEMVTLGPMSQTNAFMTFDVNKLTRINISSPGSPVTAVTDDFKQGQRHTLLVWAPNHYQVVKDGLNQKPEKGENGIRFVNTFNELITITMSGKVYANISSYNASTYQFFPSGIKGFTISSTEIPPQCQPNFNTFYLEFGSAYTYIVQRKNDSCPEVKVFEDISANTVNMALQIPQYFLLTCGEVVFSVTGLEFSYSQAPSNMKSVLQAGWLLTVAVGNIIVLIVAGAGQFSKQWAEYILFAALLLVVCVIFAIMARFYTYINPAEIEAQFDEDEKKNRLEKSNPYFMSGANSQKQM

NCCC(=O)N[C@@H](Cc1cnc[nH]1)C(=O)O [Carnosine, Carnosine (β-AlaHis)]
% inhibition of H+-dependent GlySar uptake (canine PepT1 (cPepT1) [1]; 1 mM extracellular substrate, pH 6.0, 30 min): 50% | increase of GlySar uptake capacity over DMEM-cultured cells (canine PepT1 (cPepT1) [2]; 72 h of culture): 23% | increase of GlySar uptake capacity over DMEM-cultured cells (canine PepT1 (cPepT1) [2]; 216 h of culture): 291%

IGF-I: Insulin-like Growth factor I
stimulation of H+-dependent GlySar uptake (canine PepT1 (cPepT1) [3]; increasing amounts of IGF-I (1 to 100 nM) in DMEM): no significant stimulation

CC1=C(C(=O)O)N2C(=O)[C@@H](NC(=O)[C@H](N)c3ccc(O)cc3)[C@H]2SC1 [Cefadroxil]
% inhibition of H+-dependent GlySar uptake (canine PepT1 (cPepT1) [1]; 30 μM cefadroxil): not inhibited | inhibition at 30 µM (canine PepT1 (cPepT1) [1]; MDCK, 30 μM cefadroxil): 0% | inhibition at 3000 µM (canine PepT1 (cPepT1) [1]; MDCK, 3 mM cefadroxil): ~76% | Ki (PepT2): 30 µM | Ki (PepT1): 3000 µM

C[C@@H]1C[C@H]2[C@@H]3CCC4=CC(=O)C=C[C@]4(C)[C@@]3(F)[C@@H](O)C[C@]2(C)[C@@]1(O)C(=O)CO [dexamethasone]
effect on H+-dependent GlySar uptake capacity (canine PepT1 (cPepT1) [3]): no effect

insulin: insulin (negative control)
effect on H+-dependent GlySar uptake capacity (canine PepT1 (cPepT1) [3]): no effect
